Experimental data reported in patent publication US11241480B2, “Methods for modulation of dietary and microbial exposure with compositions comprising an EGFR ligand” (Washington University, priority 2017, dated 2022).

Tests used:
CBir1 T cells = test: Adoptive transfer of CBir1/DP1 TCR transgenic T cells; type: in vivo, mice
Method: (§1) Isolation of cellular populations and flow cytometry: Small intestines or colons were harvested, rinsed with PBS, and Peyer's patches or colonic patches were removed. Epithelial cellular populations were released by incubating for 15 min three times in a 37° C. rotating incubator in HBSS media (BioWhittaker, Walkersville, Md.) containing 5 mM EDTA as previously described. Isolation of splenic, MLN and lamina propria (LP) cellular populations was performed as previously described. In some experiments, single cell suspensions of MLN were cultured in cell culture media for three days as previously described. The first wash of HBSS+EDTA was used to isolate goblet cells as below. SI and colonic LP-MNPs were identified as 7AAD^−, CD45^+, CD11c^+, MHCII^+for flow cytometric sorting. Goblet cells were identified as CD45^−, CD24^−CK18^+, UEA-I^+for flow cytometric sorting as previously described. For intracellular antigens and cytokines, cells were fixed and permeabilized overnight and stained per the manufacturers recommendations (eBioscience). Flow cytometry was performed with a FACScan cytometer (BD Biosciences, San Jose, Calif.) retrofitted with additional lasers. Data acquisition was performed using CellQuest (BD Biosciences) and Rainbow (Cytek,Fremont, Calif.) or FlowJo software (Tree Star, Ashland, OR). Data analysis was performed on a Macintosh computer running FlowJo software.
(§2) Treatments to alter GAPs: Acute induction or inhibition of GAPs was performed as previously described. Mice were given 500 μg/kg tyrphostin AG1478 i.p. to inhibit of EGFR activation, 10 mg/kg U0126 i.p. to inhibit MAPK/ERK (MEK1/MEK2) activation, 150 μg/kg carbamylcholine (acetycholine analogue) i.p., 100 mg/kg tropicamide (mAChR4 selective antagonist) i.p., 1 μg recombinant murine EGF (Shenandoah) in 20 μl PBS intracolonic, 10 μg LPS intraluminally, or 100 μl stomach contents from a DOL10 mice intraluminally, or 100 μl heat killed cecal contents from SPF housed adult mice intraluminally. Reagents from Sigma Aldrich, St. Louis, Mo. unless otherwise noted.
(§3) Adoptive T cell Transfer: 10^5 splenic CD4^+ T cells from CD45.1 CBir1 TCR transgenic mice, CD45.1+ DP1 TCR transgenic mice, or CD45.1+ OTII TCR transgenic mouse were enriched by magnetic particles (Stemcell Technology, #19752 Vancouver, British Columbia, Canada) and injected i.v. into mice. In some experiments cells were labeled with CFSE prior to injection, and MLNs of recipient mice were analyzed three days posts transfer. Mice were analyzed seven days posts transfer to evaluate the presence of the transferred population in the LP. In some experiments, in FIG. 34, FIG. 37, and FIG. 39, cells were transferred on DOL 16, and analyzed on DOL 30 or after 8 days of DSS treatment on DOL 38.

[1] = tested on: colonic LP Tregs (FoxP3+); test: Colonic LP Treg/iTreg populations by flow cytometry after early-life manipulation; type: in vivo, mice
Method: EGFRi treatment: Mice were injected with 500 μg/kg tyrphostin AG1478 (an inhibitor of EGFR phosphorylation) in the neonatal, post-neonatal, or weaned phase on DOLs noted in the text or figure legends.
Isolation of cellular populations and flow cytometry: Sls or colons were harvested, rinsed with PBS, and Peyer's patches or colonic patches were removed. Epithelial cellular populations were released by incubating for 15 min three times in a 37° C. rotating incubator in HBSS media (BioWhittaker, Walkersville, Md.) containing 5 mM EDTA, and splenic and LP cellular populations were isolated as described. SI and colonic APCs were identified as 7AAD^−, CD45^+, CD11c^+, MHCII^+ for flow cytometric sorting. FoxP3 subpopulations were identified as 7AAD^−, CD45^+, CD3^+, CD4^+, FoxP3^+, and either RORγt^+ or Helios^+. For intracellular antigens and cytokines, cells were fixed, permeabilized overnight, and stained per the manufacturers recommendations (eBioscience). Flow cytometry was performed with a FACScan cytometer (BD Biosciences, San Jose, Calif.) retrofitted with additional lasers. Data acquisition was performed using CellQuest (BD Biosciences) and Rainbow (Cytek, Fremont, Calif.) or FlowJo software (Tree Star, Ashland, Oreg.). Data analysis was performed on a Macintosh computer running FlowJo software.

[2] = Serum cytokines and immunoglobulins by ELISA/multiplex after Ova rechallenge; type: in vivo, mice; conditions: dietary Ova DOL 0-30; EGFRi DOL 6 and 8 or DOL 24 and 26
Method: Measurement of cytokines, EGF, and immunoglobulins: Cytokines were measured using the MILLIPLEX MAP Mouse Cytokine/Chemokine Magnetic Bead Panel (see e.g., FIG. 16D; EMD Millipore) or using ELISAs for EGF (R&D systems), IL13 (eBioscience), Eotaxin (R&D systems), IgE (eBiosciences), and MCPT1 (eBioscience) per the manufacturers recommendations. An ELISA comprised of Ova (Sigma-Aldrich A5503) for capture, and monoclonal anti-IgE antibody conjugated to alkaline phosphatase (Southern Biotech 1110-04) for detection, was used to measure Ova specific IgE.

C57BL/6 mice = test: DSS colitis after early-life manipulation of GAPs; type: in vivo; conditions: 3% DSS DOL30-38
Method: as §2, §3
DSS colitis: Mice were given DSS (36,000-50,000 MW, Reagent grade, MP Biomedicals) in drinking water ad libitum for eight days. Math1^fl/fl ERT2^ViCre mice and litter mates were given 1.5% DSS due to their increased susceptibility to disease. Weight was measured daily. On the final day, colons were measured for length to assess shortening, and were fixed in buffered formalin and embedded in paraffin for sectioning. H/E sections were scored for disease as before. In some experiments, colon LP was isolated on the final day of DSS treatment to analyze endogenous T cell and transferred CBir1 T cell populations.

colon draining MLN = test: MLN culture cytokines and colon H/E histology on DOL35; type: in vivo; conditions: DOL35 mice; for colon pathology (H/E sections): EGFRi DOL14 and 16 or DOL24 and 26, intracolonic EGF DOL10-21
Method: as §1
Measurement of cytokines, EGF, and immunoglobulins: Cytokines and EGF were measured using the using ELISAs for EGF (R&D systems), phosphorylated MAPK, phosphorylated EGFR, IL17 (eBioscience), IFNγ and IL-10, (R&D systems) per the manufacturers recommendations. Luminal EGF was measured in stomach, SI, and colonic contents; to isolate contents the stomach was opened and contents was added to 1 ml PBS. […] Phosphorylated MAPK, and phosphorylated EGFR was measured on epithelial cells from the SI or colon isolated by one 15 minute wash with HBSS+EDTA as described above. Cytokines were measured on supernatants from cultured MLNs.

[3] = EGFR inhibitors on DOL24 and 26 post-weaning
[4] = EGF on DOL10-21 or EGFR inhibition on DOL 24 and 26
[5] = EGFR inhibitors on DOL14 and 16 (post-neonatal phase)
[6] = intracolonic EGF DOL10-21, transfer DOL16

## COc1cc2ncnc(Nc3cccc(Cl)c3)c2cc1OC [EGFRi, tyrphostin AG1478]
CBir1 T cells; [3]
  Foxp3 expression of transferred CBir1 T cells on DOL30: significantly less Foxp3
  inflammatory cytokine expression of CBir1 T cells on DOL30: significantly greater proportion of the population expressed inflammatory cytokines
CBir1 T cells; antigen encounter post-weaning, DOL28, under EGFR inhibition
  Foxp3 expression of CBir1 and DP1 T cells in colon LP seven days post transfer: little Foxp3 expression
CBir1 T cells; inhibition of EGFR on DOL14 and 16 (post-neonatal phase), vs controls
  Foxp3 and inflammatory cytokine expression of transferred CBir1 T cells on DOL30: no significant difference in the expression of Foxp3+ or inflammatory cytokines
CBir1 T cells; inhibition of EGFR on DOL14 and 16 or on DOL24 and 26
  expansion of transferred CBir1 T cells in colon LP on DOL30: did not affect the expansion of transferred CBir1 T cells
CBir1 T cells; post-weaning mice (DOL28), three days after transfer
  expansion and activation of transferred CBir1 or DP1 cells in the MLN: allowed adoptively transferred CBir1 or DP1 cells to expand and become activated
[1]; EGFRi in neonatal phase, DOL 6 and 8
  colonic LP Treg population, pattern and timing: early peaks in colonic LP Tregs; these peaks rapidly decreased and were not maintained
[1]; EGFRi in post-neonatal phase, DOL 14 and 16
  colonic LP Treg population, pattern and timing: resembled the endogenous Treg population of non-manipulated animals
[1]; EGFRi on DOL 24 and 26 (beyond weaning)
  colonic LP Treg population, pattern and timing: rapidly lost the colonic Treg population
[1]; after manipulation of colonic GAPs (EGFRi neonatal or weaning phase)
  persistence of the diminished iTreg population: at least 8 months
[2]
  other immunoglobulins, Th1 and Th17 cytokines in serum: did not have elevations in other immunoglobulins or prototypic Th1 or Th17 cytokines
  serum Th2 mediators and IgE: markedly elevated serum levels of Th2 mediators, and global and antigen-specific IgE
C57BL/6 mice; [4]
  Foxp3 expression of transferred CBir1 T cells after DSS: significantly reduced Foxp3 expression
  disease severity in DSS colitis (histology, colon length): developed significantly worse disease
  expansion of CBir1 T cells in colon LP after DSS: significant expansion of CBir1 T cells in colon LP
  inflammatory cytokines of transferred CBir1 T cells after DSS: significantly increased inflammatory cytokines
  weight loss in DSS colitis: lost significantly more weight
C57BL/6 mice; [5]
  Foxp3 and inflammatory cytokine expression of CBir1 T cells after DSS: continued expressing Foxp3 but not inflammatory cytokines
  expansion of CBir1 T cells in colon LP after DSS: did not expand further in the colon LP
Colon draining MLN; EGFRi post-weaning (DOL24 and 26)
  inflammatory cytokine production in the colon draining MLN: results in inflammatory cytokine production in the colon draining MLN
Colon draining MLN
  colon pathology (H/E sections): does not induce overt pathologic changes

## EGF: recombinant murine EGF (Shenandoah); EGFR ligand, given luminally or intracolonically
CBir1 T cells; [6]
  Foxp3 expression of transferred CBir1 T cells on DOL30: significantly less Foxp3
  expansion of transferred CBir1 T cells in colon LP on DOL30: significantly less expansion
CBir1 T cells; intracolonic EGF DOL10-21, vs PBS treated control mice
  inflammatory cytokine expression (IL-17, TNFα, IFNγ) of CBir1 T cells on DOL30: significantly larger proportion of the remaining CBir1 T cell population expressed inflammatory cytokines
CBir1 T cells; post-neonatal mice, intracolonic recombinant EGF (1 μg daily DOL10-21)
  expansion of CBir1 cells in the colon draining MLN three days post transfer: failed to expand
C57BL/6 mice; [4]
  Foxp3 expression of transferred CBir1 T cells after DSS: significantly reduced Foxp3 expression
  disease severity in DSS colitis (histology, colon length): developed significantly worse disease
  expansion of CBir1 T cells in colon LP after DSS: significant expansion of CBir1 T cells in colon LP
  inflammatory cytokines of transferred CBir1 T cells after DSS: significantly increased inflammatory cytokines
  weight loss in DSS colitis: lost significantly more weight
Colon draining MLN
  colon pathology (H/E sections): no overt pathology
